Reference: patent US10752587B2, “Homobispiperidinyl derivatives as liver X receptor beta agonists, compositions and their use” (Merck Sharp & Dohme Corp., priority 2015, dated 2020)
Read-outs that look alike come from different tables or passages of the source.

What was measured:
[1] = molecular target: T1, glutathione-S-transferase (GST) tagged LXRalpha LBD (ligand binding domain) (Homo sapiens, UniProt Q13133); assay: LanthaScreen TR-FRET Liver X Receptor Coactivator Assay, co-activator recruitment to LXRalpha LBD; type: biochemical; conditions: for Emax: efficacy at max dose, in relation to reference dual agonist T0901317, read-out: LXR alpha Activity @ max dose (%); for LXR alpha IP (nM) / EC50: potency (Inflection Point, IP), co-activator recruitment to LXRalpha LBD, in relation to T0901317; for EC50: read-out: LXR alpha IP
T1 construct: purchased Invitrogen pv4655
T1 sequence (Q13133 209-447 limits assumed): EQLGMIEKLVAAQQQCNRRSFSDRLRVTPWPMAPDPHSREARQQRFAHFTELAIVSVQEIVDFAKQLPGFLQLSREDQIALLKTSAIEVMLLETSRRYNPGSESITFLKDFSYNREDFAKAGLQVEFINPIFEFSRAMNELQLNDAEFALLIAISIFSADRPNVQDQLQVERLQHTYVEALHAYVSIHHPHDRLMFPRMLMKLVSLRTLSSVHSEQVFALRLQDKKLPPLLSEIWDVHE
Procedure: (§1) Potency (Inflection Point, IP) and efficacy (Emax) are evaluated via compound-induced co-activator recruitment to glutathione-S-transferase (GST) tagged LXRbeta and LXRalpha LBD (ligand binding domain) proteins in relation to reference dual agonist compound T0901317 (N-(2,2,2-Trifluoroethyl)-N-[4-[2,2,2-trifluoro-1-hydroxy-1-(trifluoromethyl)ethyl] phenyl] benzenesulfonamide) using the LanthaScreen™ TR-FRET Liver X Receptor Coactivator Assays according to manufacturer's instructions (Invitrogen catalog number pv4658.pps and pv4655). While running the LanthaScreen™ TR-FRET Liver X Receptor Coactivator Assay, LXR alpha-LBD or LXR beta-LBD was added to ligand test compounds followed by addition of a mixture of a fluorescein-labelled coactivator peptide and terbium-conjugated anti-GST antibody. After an incubation period at room temperature, TR-FRET (time-resolved fluorescence resonance energy transfer) was measured using a filter-based instrument capable of TR-FRET, e.g. PerkinElmer Envision.

[2] = molecular target: T2, glutathione-S-transferase (GST) tagged LXRbeta LBD (ligand binding domain) (Homo sapiens, UniProt P55055); assay: LanthaScreen TR-FRET Liver X Receptor Coactivator Assay, co-activator recruitment to LXRbeta LBD; type: biochemical; conditions: for Emax: read-out: LXR beta Activity @ max dose (%); for EC50: potency (Inflection Point, IP), co-activator recruitment to LXRbeta LBD, in relation to T0901317
T2 construct: purchased Invitrogen pv4658.pps
T2 sequence (P55055 222-460 limits assumed): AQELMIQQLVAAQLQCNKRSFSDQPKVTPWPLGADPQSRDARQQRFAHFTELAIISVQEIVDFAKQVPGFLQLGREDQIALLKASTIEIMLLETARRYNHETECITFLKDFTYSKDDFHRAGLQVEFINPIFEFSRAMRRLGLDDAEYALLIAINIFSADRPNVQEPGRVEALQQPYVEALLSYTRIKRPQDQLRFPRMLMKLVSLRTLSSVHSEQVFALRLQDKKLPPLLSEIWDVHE
Procedure: as §1

[3] = efficacy at max dose, in relation to reference dual agonist T0901317

| SMILES | Emax [1] | LXR alpha IP (nM) [1] | Emax [2, 3] | EC50 ([2]; read-out: LXR beta IP) | EC50 [1] | EC50 ([2]; LXR beta IP (nM)) | Emax [2] |
| --- | --- | --- | --- | --- | --- | --- | --- |
| CN(C)C(=O)c1ccc(N2CCC(CC3CCN(C(=O)[C@](O)(c4ccccc4)C(F)(F)F)C3)CC2)cc1Cl (stereo partly drawn) [Example 2-71, 2-chloro-N,N-dimethyl-4-[4-({1-[(2R)-3,3,3-trifluoro-2-hydroxy-2-phenyl-propanoyl]pyrrolidin-3-yl}methyl)piperidin-1-yl]benzamide] | 9% | NO IP | 64% | 84 nM | – | – | – |
| CNC(=O)c1ccc(N2CCC(SC3CCN(C(=O)[C@](O)(c4cccc(OC)c4)C(F)(F)F)CC3)CC2)nc1Cl [Example 11-1, (R)-2-chloro-N-methyl-6-(4-(1-(3,3,3-trifluoro-2-hydroxy-2-(3-methoxyphenyl)propanoyl)piperidin-4-ylthio)piperidin-1-yl)nicotinamide] | 17% | NO IP | – | – | – | 17 nM | 93% |
| CN(C)C(=O)c1ccc(N2CCC(CC3CCN(C(=O)[C@](O)(c4ccccc4)C(F)F)CC3)CC2)cc1Cl [Example 2-166, 2-chloro-4-[4-({1-[(2R)-3,3-difluoro-2-hydroxy-2-phenyl-propanoyl]piperidin-4-yl}methyl)piperidin-1-yl]-N,N-dimethyl-benzamide] | 20% | – | 46% | 14 nM | 296 nM | – | – |
| CCOc1cccc([C@@](O)(C(=O)N2CCC(CC3CCN(c4ccc(C(=O)N(C)C)cc4)CC3)CC2)C(F)(F)F)c1 [Example 2-145, 4-[4-({1-[(2R)-2-(3-ethoxy-phenyl)-3,3,3-trifluoro-2-hydroxy-propanoyl]piperidin-4-yl}methyl)piperidin-1-yl]-N,N-dimethyl-benzamide] | 4% | NO IP | 54% | 73 nM | – | – | – |
| CN(C)C(=O)c1ccc(N2CCC(CCC3CCN(C(=O)[C@](O)(c4ccccc4)C(F)(F)F)CC3)CC2)cc1Cl [Example 2-162, 2-chloro-N,N-dimethyl-4-[4-(2-{1-[(2R)-3,3,3-trifluoro-2-hydroxy-2-phenyl-propanoyl]piperidin-4-yl}ethyl)piperidin-1-yl]benzamide] | 12% | NO IP | 38% | 502 nM | – | – | – |
| CC(C)c1cccc([C@@](O)(C(=O)N2CCC(CC3CCN(c4ccc(C(=O)N(C)C)c(Cl)c4)CC3)CC2)C(F)(F)F)c1 [Example 2-95, 2-chloro-N,N-dimethyl-4-{4-[(1-{(2R)-3,3,3-trifluoro-2-hydroxy-2-[3-(1-methylethyl)phenyl]propanoyl}piperidin-4-yl)methyl]piperidin-1-yl}benzamide] | 15% | – | 50% | 6 nM | 341 nM | – | – |
| Cc1cccc([C@@](O)(C(=O)N2CCC(CC3CCN(c4ccc(C(=O)N(C)C)cc4)CC3)CC2)C(F)(F)F)c1 [Example 2-129, N,N-dimethyl-4-[4-({1-[(2R)-3,3,3-trifluoro-2-hydroxy-2-(3-methylphenyl)propanoyl]piperidin-4-yl}methyl)piperidin-1-yl]benzamide] | 5% | NO IP | 51% | 51 nM | – | – | – |
| CC(C)c1cccc([C@@](O)(C(=O)N2CCC(CC3CCN(c4ccc(C(=O)N(C)C)cc4)CC3)CC2)C(F)(F)F)c1 [Example 2-125, N,N-dimethyl-4-{4-[(1-{(2R)-3,3,3-trifluoro-2-hydroxy-2-[3-(1-methyl-ethyl)phenyl]propanoyl}piperidin-4-yl)methyl]piperidin-1-yl}benzamide] | 15% | – | 64% | 52 nM | 459 nM | – | – |
| CN(C)C(=O)c1ccc(N2CCC(CC3CCN(C(=O)[C@](O)(c4cccc(F)c4)C(F)F)CC3)CC2)cc1Cl [Example 2-164, 2-chloro-4-[4-({1-[(2R)-3,3-difluoro-2-(3-fluorophenyl)-2-hydroxy-propanoyl]piperidin-4-yl}methyl)piperidin-1-yl]-N,N-dimethyl-benzamide] | 29% | – | 70% | 12 nM | 294 nM | – | – |

Continued, in another order:

| Emax [1] | LXR alpha IP (nM) [1] | Emax [2, 3] | EC50 ([2]; read-out: LXR beta IP) | EC50 [1] | SMILES | EC50 ([2]; LXR beta IP (nM)) | Emax [2] |
| --- | --- | --- | --- | --- | --- | --- | --- |
| 9% | NO IP | 37% | 3 nM | – | NC(=O)c1ccc(N2CCC(CC3CCN(C(=O)[C@](O)(c4cc(Cl)cc(Cl)c4)C(F)(F)F)CC3)CC2)cc1Cl [Example 12-1, 2-chloro-4-[4-({1-[(2R)-2-(3,5-dichlorophenyl)-3,3,3-trifluoro-2-hydroxypropanoyl]piperidin-4-yl}methyl)piperidin-1-yl]benzamide] | – | – |
| 0% | NO IP | 26% | 3 nM | – | COc1cc(Cl)cc([C@@](O)(C(=O)N2CCC(CC3CCN(c4ccc(C(=O)N(C)C)c(Cl)n4)CC3)CC2)C(F)(F)F)c1 [Example 7-107, 2-chloro-6-[4-({1-[(2R)-2-(3-chloro-5-methoxyphenyl)-3,3,3-trifluoro-2-hydroxypropanoyl]piperidin-4-yl}methyl)piperidin-1-yl]-N,N-dimethylpyridine-3-carboxamide] | – | – |
| 34% | – | 110% | 25 nM | 1250 nM | CN(C)C(=O)c1ccc(N2CCC(CC3CCN(C(=O)[C@@](O)(c4cccc(Cl)c4)C(F)(F)F)CC3)CC2)nc1Cl [Example 7-70, 2-chloro-6-[4-({1-[(2S)-2-(3-chlorophenyl)-3,3,3-trifluoro-2-hydroxypropanoyl]piperidin-4-yl}methyl)piperidin-1-yl]-N,N-dimethyl-pyridine-3-carboxamide] | – | – |
| 16% | NO IP | 80% | 33 nM | – | CCc1cccc([C@@](O)(C(=O)N2CC(CC3CCN(c4ccc(C(=O)N(C)C)c(Cl)n4)CC3)C2)C(F)(F)F)c1 [Example 7-43, 2-chloro-6-[4-({1-[(2R)-2-(3-ethylphenyl)-3,3,3-trifluoro-2-hydroxypropanoyl]azetidin-3-yl}methyl)piperidin-1-yl]-N,N-dimethylpyridine-3-carboxamide] | – | – |
| 0% | NO IP | 100% | 105 nM | – | CCOc1cccc([C@@](O)(C(=O)N2CCC(CC3(C)CCN(c4ccc(C(=O)N(C)C)c(C)n4)CC3)CC2)C(F)(F)F)c1 [Example 7-14, 6-[4-({1-[(2R)-2-(3-ethoxyphenyl)-3,3,3-trifluoro-2-hydroxypropanoyl]piperidin-4-yl}methyl)-4-methyl-piperidin-1-yl]-N,N,2-trimethylpyridine-3-carboxamide] | – | – |
| 40% | – | 87% | 38 nM | 1300 nM | CN(Cc1ccon1)C(=O)c1ccc(N2CCC(OC3CCN(C(=O)[C@](O)(c4ccccc4)C(F)(F)F)CC3)CC2)cc1Cl [Example 4-15, 2-chloro-N-(isoxazol-3-yl-methyl)-N-methyl-4-[4-({1-[(2R)-3,3,3-trifluoro-2-hydroxy-2-phenylpropanoyl]piperidin-4-yl}oxy)piperidin-1-yl]benzamide] | – | – |
| 27% | – | 90% | 16 nM | 340 nM | CNC(=O)c1ccc(N2CCC(CC3CCN(C(=O)C(O)(c4cccc(Cl)c4)C(F)(F)F)CC3)CC2)cc1Cl (centres unmarked) [Example 7-37, 2-chloro-4-[4-({1-[2-(3-chlorophenyl)-3,3,3-trifluoro-2-hydroxypropanoyl]piperidin-4-yl}methyl)piperidin-1-yl]-N-methylbenzamide] | – | – |
| 11% | NO IP | 54% | 13 nM | – | CC(C)c1cccc(C(O)(C(=O)N2CCC(CC3CCN(c4ccc(C(=O)N(C)C)c(Cl)n4)CC3)CC2)C(F)(F)F)c1 (centres unmarked) [Example 7-84, 2-chloro-N,N-dimethyl-6-{4-[(1-{3,3,3-trifluoro-2-hydroxy-2-[3-(1-methylethyl)phenyl]propanoyl}piperidin-4-yl)methyl]piperidin-1-yl}pyridine-3-carboxamide] | – | – |
